Assays:
activated human C1 = biological target: T1, activated human C1 (Homo sapiens, UniProt P09871); assay: Test, Code 026 (C1 inhibitor); format: biochemical; conditions: In Vitro; serial two-fold dilution assay, higher well number indicates higher activity
T1 sequence (P09871 438-688 limits assumed): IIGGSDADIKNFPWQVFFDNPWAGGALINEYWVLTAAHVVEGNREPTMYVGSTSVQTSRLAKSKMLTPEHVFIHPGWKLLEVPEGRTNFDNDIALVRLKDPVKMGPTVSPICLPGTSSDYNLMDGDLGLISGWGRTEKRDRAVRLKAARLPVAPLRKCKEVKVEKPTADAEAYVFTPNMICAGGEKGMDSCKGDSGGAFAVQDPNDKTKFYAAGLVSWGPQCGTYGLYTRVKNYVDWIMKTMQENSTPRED
T1 sequence (P09871 16-437 limits assumed): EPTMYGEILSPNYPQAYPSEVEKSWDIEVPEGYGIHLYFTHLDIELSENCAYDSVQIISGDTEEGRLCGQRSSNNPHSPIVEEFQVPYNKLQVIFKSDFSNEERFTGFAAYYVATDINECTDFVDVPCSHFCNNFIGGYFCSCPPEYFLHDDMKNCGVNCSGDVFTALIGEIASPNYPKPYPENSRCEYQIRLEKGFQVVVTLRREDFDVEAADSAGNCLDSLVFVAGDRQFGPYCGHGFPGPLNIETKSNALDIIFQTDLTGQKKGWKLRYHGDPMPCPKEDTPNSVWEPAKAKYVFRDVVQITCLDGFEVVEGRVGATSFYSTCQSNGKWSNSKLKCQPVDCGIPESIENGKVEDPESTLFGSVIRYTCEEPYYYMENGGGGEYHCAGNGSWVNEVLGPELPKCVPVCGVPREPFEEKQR
Description: (§1) This test measures the ability of activated human C1 to destroy fluid phase human C2 in the presence of C4 and appropriate dilutions of the test compound. An active inhibitor protects C2 from C1 and C4; (ii) Test, Code 035 (C3-C9 inhibitor). This test determines the ability of the late components of human complement (C3-C9 to lyse EAC 142 in the presence of appropriate dilutions of the test compound. An active inhibitor protects EAC 142 from lysis by human C3-C9; (ii) Test, Code 036 (C-Shunt inhibitor)-- In this test human erythrocytes rendered fragile are lysed in autologous serum via the shunt pathway activated by cobra venom factor in the presence of appropriate dilutions of the test compound. Inhibition of the shunt pathway results in failure of lysis; (iv) Forssman Vasculitis Test-- Here, the well known complement dependent lesion, Forssman vasculitis, is produced in guinea pigs by intradermal injection of rabbit anti-Forssman antiserum. The lesion is measured in terms of diameter, edema and hemorrhage and the extent to which a combined index of these is inhibited by prior intraperitoneal injection of the test compound at 200 mg/kg is then reported, unless otherwise stated; (v) Forssman Shock Test-- Lethal shock is produced in guinea pigs by an i.v. injection of anti-Forssman antiserum and the harmonic mean death time of treated guinea pigs is compared with that of simultaneous controls; (vi) Complement Level Reduction Test-- In this test, the above dosed guinea pigs, or other, are bled for serum and the complement level is determined in undiluted serum by the capillary tube method of U.S. Pat. No. 3,876,376 and compared to undosed control guinea pigs; and (vii) Cap 50 Test-- Here, appropriate amounts of the test compound are added to a pool of guinea pig serum in vitro, after which the undiluted serum capillary tube assay referred to above is run. The concentration of compound inhibiting 50% is reported.

[1] = tested on: late components of human complement (C3-C9); assay: Test, Code 035 (C3-C9 inhibitor), lysis of EAC 142; format: biochemical; conditions: In Vitro; serial two-fold dilution assay, higher well number indicates higher activity
Description: as §1

shunt pathway = assay: Test, Code 036 (C-Shunt inhibitor), lysis of fragile human erythrocytes in autologous serum, cobra venom factor; format: biochemical; conditions: In Vitro; serial two-fold dilution assay, higher well number indicates higher activity
Description: as §1

Forssman vasculitis = assay: Forssman Vasculitis Test; conditions: In Vivo; guinea pigs; inhibition of combined index of lesion diameter, edema and hemorrhage; prior intraperitoneal injection at 200 mg/kg
Description: as §1

[2] = tested on: complement level in undiluted serum; assay: Complement Level Reduction Test; conditions: In Vivo; serum of dosed guinea pigs compared to undosed controls, capillary tube method
Description: as §1

With `O=C(Nc1cccc(C(=O)Nc2ccc3cc(S(=O)(=O)[O-])cc(S(=O)(=O)[O-])c3c2)c1)Nc1cccc(C(=O)Nc2ccc3cc(S(=O)(=O)[O-])cc(S(=O)(=O)[O-])c3c2)c1.[Na+].[Na+].[Na+].[Na+]` [7,7'-[Ureylenebis(m-phenylenecarbonylimino)]di-1,3-naphthalenedisulfonic acid tetrasodium salt] the “026 (C1 inhibitor), activity in wells” value (activated human C1) was 3 wells, the “035 (C3-C9 inhibitor), activity in wells” value [1] was 1 wells and the “036 (C-Shunt inhibitor), activity in wells” value (from here on “036 (C-Shunt inhibitor)”) (shunt pathway) was 1 wells. The Forssman (Forssman vasculitis) was 8 and the “% Reduction Complement” value [2] was -33%.

In the case of `O=C(Nc1cccc(C(=O)Nc2ccc(S(=O)(=O)[O-])c3cccc(S(=O)(=O)[O-])c23)c1)Nc1cccc(C(=O)Nc2ccc(S(=O)(=O)[O-])c3cccc(S(=O)(=O)[O-])c23)c1.[Na+].[Na+].[Na+].[Na+]` [4,4'-[Ureylenebis(m-phenylenecarbonylimino)]di-1,5-naphthalenedisulfonic acid tetrasodium salt], the “026 (C1 inhibitor), activity in wells” value (activated human C1) is reported as 2 wells, the “035 (C3-C9 inhibitor), activity in wells” value [1] is reported as “NEG” and the “036 (C-Shunt inhibitor)” value (shunt pathway) is reported as “NEG”. The Forssman (Forssman vasculitis) was 10 and the “% Reduction Complement” value [2] was -18%.

For `O=C(Nc1ccc(C(=O)Nc2ccc(S(=O)(=O)[O-])c3cccc(S(=O)(=O)[O-])c23)cc1)Nc1ccc(C(=O)Nc2ccc(S(=O)(=O)[O-])c3cccc(S(=O)(=O)[O-])c23)cc1.[Na+].[Na+].[Na+].[Na+]` [4,4'-[Ureylenebis(p-phenylenecarbonylimino)]di-1,5-naphthalenedisulfonic acid tetrasodium salt], the “026 (C1 inhibitor), activity in wells” value (activated human C1) was “NEG”, the “035 (C3-C9 inhibitor), activity in wells” value [1] was “NEG” and the “036 (C-Shunt inhibitor)” value (shunt pathway) was “NEG”. The Forssman (Forssman vasculitis) was 12 and the “% Reduction Complement” value [2] was “+58%”.

`O=C(Nc1cccc(C(=O)Nc2cc(S(=O)(=O)[O-])cc3cc(S(=O)(=O)[O-])ccc23)c1)Nc1cccc(C(=O)Nc2cc(S(=O)(=O)[O-])cc3cc(S(=O)(=O)[O-])ccc23)c1.[Na+].[Na+].[Na+].[Na+]` [4,4'-[Ureylenebis(m-phenylenecarbonylimino)]di-2,7-naphthalenedisulfonic acid tetrasodium salt] was tested, and the “026 (C1 inhibitor), activity in wells” value (activated human C1) was 3 wells, the “035 (C3-C9 inhibitor), activity in wells” value [1] was “NEG” and the “036 (C-Shunt inhibitor)” value (shunt pathway) was “NEG”. The Forssman (Forssman vasculitis) was 0 and the “% Reduction Complement” value [2] was “+4%”.

With `O=C(Nc1cccc(C(=O)Nc2ccc3c(S(=O)(=O)[O-])cccc3c2S(=O)(=O)[O-])c1)Nc1cccc(C(=O)Nc2ccc3c(S(=O)(=O)[O-])cccc3c2S(=O)(=O)[O-])c1.[Na+].[Na+].[Na+].[Na+]` [2,2'-[Ureylenebis(m-phenylenecarbonylimino)]di-1,5-naphthalenedisulfonic acid tetrasodium salt] the “026 (C1 inhibitor), activity in wells” value (activated human C1) was “NEG”, the “035 (C3-C9 inhibitor), activity in wells” value [1] was 1 wells and the “036 (C-Shunt inhibitor)” value (shunt pathway) was 1 wells. For the same compound, the Forssman (Forssman vasculitis) was 10 and the “% Reduction Complement” value [2] was -18%.
